The test system of test [1] is many strains of Acinetobacter baumannii. Particulars: in combination with meropenem; cited from earlier work.
Test [2] relates to Acinetobacter baumannii ST15 (NDM-1 OXA-51, ADC-263). The test is described as follows: Checkerboard MIC, fixed concentration of sBLI (Examples 11-17). Type of test: cell-based. The source says: The antibiotics and serine β-lactamase-inhibitors (sBLIs) were purchased from the following suppliers: Ceftazidime (CAZ): Sigma-Aldrich; Cefepime (FEP): Sigma-Aldrich; Cefpodoxime (CEFP): MedChemExpress; Sulbactam (SUL): Sigma-Aldrich Avibactam (AVI): Biosynth; Vaborbactam (VAB): ABCR; Tazobactam (TAZ): Sigma-Aldrich; Taniborbactam (TAN): Sigma-Aldrich.
In each of Examples 3-23, the compound of Example 26 of WO 2018/033719 was employed as the zinc chelator. The following abbreviations are used in these examples: sBLI means serine-β-lactamase inhibitor; CFU means colony-forming unit, which is a group of microbes that grows from a single cell on a petri plate; DMSO means dimethyl sulfoxide; MHB means Mueller-Hinton broth; caMHB means cation-adjusted Mueller-Hinton broth; MIC means minimum inhibitory concentration—the lower the MIC, the more efficient the combination against the respective bacterial strain.
General Protocol 2 Used in Examples 11-23 Employing a Fixed Concentration of sBLI within Each Experiment:
Antimicrobial susceptibility testing (AST) by broth microdilution (MIC determination) was performed according to The European Committee on Antimicrobial Susceptibility Testing (EUCAST) guidelines (see Reading guide for broth microdilution Version 5.0, 2024: https://www.eucast.org).
Sterile clear round bottom polystyrene (non-treated) 96-well microplates (Corning 3788) were used for making serial two-fold dilutions of the antibiotic in cation-adjusted Mueller Hinton II broth (caMHB; Thermo Scientific, T3462, containing 29.4 μM Zn^2+ or MILLIPORE, 90922-500G, containing 5.6 μM Zn^2+), across the columns of the microtiter plate (128-0.06 μg/mL; columns 1-12).
The checkerboard plates were all modified by adding a serine β-lactamase inhibitor (sBLI) at a fixed concentration of 16 μg/mL. Additionally, the zinc chelator was added at various fixed concentrations. Samples were mixed so that all plates contained a control containing antibiotic alone (no sBLI, no zinc chelator), a sample containing antibiotic and sBLI (double combination; no zinc chelator), and a sample containing antibiotic, sBLI and zinc chelator (triple combination). All test wells used in each plate contained growth medium (caMHB), and inoculated bacteria at a final inoculum between 3-7×10^5 CFU/mL. […] Synergy for the triple combination (antibiotic, sBLI, and zinc chelator) was defined as when the MIC in any of the rows containing the zinc chelator in combination with antibiotic and sBLI (triple combination), was lower than for antibiotic alone and lower than for the antibiotic and sBLI double combination.
An X in rows 1-4 in the table indicates growth of the bacterial inoculum, while a blank cell indicates no growth. Concentrations (μg/mL) of FEP are given in row 0. AVI and the zinc chelator were added in fixed concentrations (AVI at 16 μg/mL in rows 2-4, zinc chelator at 16 μg/mL in row 3 and at 8 μg/mL in row 4). As a control, the effect of FEP alone was tested (row 1). All wells contained bacterial growth medium (caMHB, 29.4 μM Zn^2+) and were inoculated with the test bacterium. The grey cells indicate the FEP MIC.
An X in rows 1-4 in the table indicates growth of the bacterial inoculum, while a blank cell indicates no growth. Concentrations (μg/mL) of FEP are given in row 0. SUL and the zinc chelator were added in fixed concentrations (SUL at 16 μg/mL in rows 2-4, zinc chelator at 16 μg/mL in row 3 and at 8 μg/mL in row 4). As a control, the effect of FEP alone was tested (row 1). All wells contained bacterial growth medium (caMHB, 29.4 μM Zn^2+) and were inoculated with the test bacterium. The grey cells indicate the FEP MIC.
An X in rows 1-4 in the table indicates growth of the bacterial inoculum, while a blank cell indicates no growth. Concentrations (μg/mL) of FEP are given in row 0. TAZ and the zinc chelator were added in fixed concentrations (TAZ at 16 μg/mL in rows 2-4, zinc chelator at 16 μg/mL in row 3 and at 8 μg/mL in row 4). […]

Test [3] concerns bacteria which rely on SBLs. As to conditions: in combination with meropenem; cited from earlier work.
Test [4] concerns gram-negative bacteria with MBL, for example Klebsiella pneumoniae, E. coli and Pseudomonas aeruginosa. As to conditions: in combination with meropenem; cited from earlier work.

Regarding `CN(C[C@H](O)[C@@H](O)[C@H](O)[C@H](O)CO)C(=O)c1ccc(CN(Cc2ccccn2)Cc2ccccn2)nc1` [zinc chelator], the “effect of combination with meropenem” value is listed as “poor effect” in test [1] and “no effect” in test [3]. The “synergy with the zinc chelator” value in test [2] (zinc chelator 4 μg/mL, with CEFP and SUL 16 μg/mL, caMHB 5.6 μM Zn2+) was “Synergy”; in test [2] (zinc chelator 4 μg/mL, with FEP and AVI 16 μg/mL, caMHB 5.6 μM Zn2+), “Synergy”; in test [2] (zinc chelator 8 μg/mL, with CEFP and SUL 16 μg/mL, caMHB 5.6 μM Zn2+) it was “Synergy”; in test [2] (zinc chelator 8 μg/mL, with FEP and AVI 16 μg/mL, caMHB 5.6 μM Zn2+) it was “Synergy”; in test [2] (zinc chelator 8 μg/mL, with FEP and AVI 16 μg/mL, caMHB 29.4 μM Zn2+) it was “Synergy”; in test [2] (zinc chelator 8 μg/mL, with FEP and SUL 16 μg/mL, caMHB 29.4 μM Zn2+), “Synergy”. Further, the “synergy with the zinc chelator” value is recorded as “Synergy” in test [2] (zinc chelator 8 μg/mL, with FEP and TAZ 16 μg/mL, caMHB 5.6 μM Zn2+); “Synergy” in test [2] (zinc chelator 8 μg/mL, with FEP and TAZ 16 μg/mL, caMHB 29.4 μM Zn2+); “Synergy” in test [2] (zinc chelator 16 μg/mL, with CEFP and SUL 16 μg/mL, caMHB 5.6 μM Zn2+); “Synergy” in test [2] (zinc chelator 16 μg/mL, with CEFP and SUL 16 μg/mL, caMHB 29.4 μM Zn2+); “Synergy” in test [2] (zinc chelator 16 μg/mL, with FEP and AVI 16 μg/mL, caMHB 29.4 μM Zn2+); “Synergy” in test [2] (zinc chelator 16 μg/mL, with FEP and SUL 16 μg/mL, caMHB 29.4 μM Zn2+). The “synergy with the zinc chelator” value in test [2] (zinc chelator 16 μg/mL, with FEP and TAZ 16 μg/mL, caMHB 5.6 μM Zn2+) is “Synergy”; in test [2] (zinc chelator 16 μg/mL, with FEP and TAZ 16 μg/mL, caMHB 29.4 μM Zn2+) it was “Synergy”. For the same compound, the “sensitivity of gram-negative bacteria with MBL to meropenem” value in test [4] is “the sensitivity of these bacteria towards the antibiotic drug is reinstated”.

These data come from patent US20260325538A1, “THERAPY” (priority 2023, published 2026).
